According to PubChem BioAssay AID463203 (Broad Institute, 2010):
Active and inactive are the calls of the source.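 The calls were made as follows: active = more than half of replicate measurements showing over 20% loss of kinase signal relative to plate controls; inconclusive = some but at most half of replicates over 20% loss; inactive = no replicate over 20% signal loss.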

Target: Glycogen synthase kinase-3 alpha (Homo sapiens) (UniProt P49840)
Experiment: concentration-response blocking of human GSK3A – biochemical, luminescence, cell-free homogeneous, retest, dose response (AID 463203)
Settings: GSK-3 alpha enzyme, ADP-Glo luminescence, 60 min

Chain of Glycogen synthase kinase-3 alpha (Homo sapiens) (P49840 whole entry, looked up): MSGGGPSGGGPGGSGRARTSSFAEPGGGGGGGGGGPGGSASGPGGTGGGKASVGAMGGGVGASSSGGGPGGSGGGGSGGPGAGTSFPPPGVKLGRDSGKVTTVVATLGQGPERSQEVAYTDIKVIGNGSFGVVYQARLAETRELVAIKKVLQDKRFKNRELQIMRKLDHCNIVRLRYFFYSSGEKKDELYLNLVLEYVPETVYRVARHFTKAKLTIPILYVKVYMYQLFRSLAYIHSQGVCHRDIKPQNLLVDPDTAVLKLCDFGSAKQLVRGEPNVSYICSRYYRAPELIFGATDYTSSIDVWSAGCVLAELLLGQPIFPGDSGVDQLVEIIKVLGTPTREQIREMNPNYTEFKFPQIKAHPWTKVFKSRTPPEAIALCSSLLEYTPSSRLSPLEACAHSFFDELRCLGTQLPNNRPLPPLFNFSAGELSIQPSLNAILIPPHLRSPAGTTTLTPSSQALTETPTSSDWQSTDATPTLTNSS

`CCC(Oc1ccccc1)C(=O)N(C)CC(=O)N(CC(C)C)c1c(N)n(CC(C)C)c(=O)[nH]c1=O` (stereo not given) was tested, and the AC50 was > 30 µM (inactive).
`O=C(COc1cccc2cccnc12)N/N=C/c1ccccc1O` was tested, and the AC50 was > 30 µM (inactive).
In the case of `Cn1c(SCC(=O)N/N=C/C=C/c2ccco2)nc2ccccc21`, the AC50 is reported as > 30 µM (inactive).
In the case of `Cc1noc(C)c1COc1cccc(C(=O)OC(C)C(=O)Nc2c(C)n(C)n(-c3ccccc3)c2=O)c1` (stereo not given), the AC50 is reported as > 30 µM (inactive).
With `CCCc1cc(C(N)=O)c(NC(C)=O)s1` the AC50 was 30.8 µM.
For `Cc1ccnc(SCC(=O)Nc2sc3c(c2C#N)CCCC3)n1`, the AC50 was > 30 µM (inactive).
With `COc1cccc(C(C[N+](=O)[O-])c2c(C)[nH]n(-c3ccccc3)c2=O)c1` (stereo not given) the AC50 was > 30 µM (inactive).
With `COC(=O)c1cc(O)c(OCc2ccccc2)c(O)c1` the AC50 was > 30 µM (inactive).
In the case of `Cc1oc2ccc(O)cc2c1C(=O)c1ccc(Br)cc1`, the AC50 is reported as > 30 µM (inactive).
`NC(=O)c1nnn(-c2ccccc2)c1N` was tested, and the AC50 was > 30 µM (inactive).
For `COc1ccc(OC)c(C2CC(=O)N3CN(c4ccccc4)CSC3=C2C#N)c1` (stereo not given), the AC50 was > 30 µM (inactive).
`O=C(Nc1ccccc1F)Nc1ccccc1OC(F)F` was tested, and the AC50 was > 30 µM (inactive).
With `Cc1c(C(=O)OC(C)C)[nH]c2c1C(=O)CC(C)(C)C2` the AC50 was > 30 µM (inactive).
`O=c1c(O)cccc2cc(O)c(O)c(O)c12` showed an AC50 of 21.1 µM.
`COc1ccccc1NC(=O)c1cc(Cl)ccc1NC(=O)c1ccco1` was tested, and the AC50 was > 30 µM (inactive).
For `COC(=O)c1nnn(-c2ccccc2)c1N`, the AC50 was > 30 µM (inactive).
`COC(=O)C1=C(C)NC(=O)NC1c1ccc2c(c1)OCO2` (stereo not given) was tested, and the AC50 was > 30 µM (inactive).
For `CC(=O)Nc1ccc(S(=O)(=O)NC(C)c2ccncc2)cc1` (stereo not given), the AC50 was > 30 µM (inactive).
In the case of `O=C(c1ccco1)c1cn(CC(=O)N2CCCCC2)c2ccccc12`, the AC50 is reported as > 30 µM (inactive).
For `Cc1[nH]nc(NCCO)c1[N+](=O)[O-]`, the AC50 was > 30 µM (inactive).
With `Cc1cccc(C)c1NC(=O)COC(=O)Cc1ccsc1` the AC50 was > 30 µM (inactive).
`COc1cccc(C2C(C(=O)OC(C)C)=C(C)Nc3ncnn32)c1` (stereo not given) was tested, and the AC50 was 15.2 µM.
With `Cc1cc(=O)[nH]c(SCC(=O)O)c1C#N` the AC50 was > 30 µM (inactive).
In the case of `NC1=NC(=O)/C(=C\c2ccc(-c3ccc(Cl)cc3)o2)S1`, the AC50 is reported as 1.4 µM.
In the case of `CCc1ccc(C2CC(c3ccccc3Cl)Nc3nc(N)nn32)cc1` (stereo not given), the AC50 is reported as > 30 µM (inactive).
With `COc1ccccc1Nc1nc(NCCCCO)nc(N2CCCC2)n1` the AC50 was > 30 µM (inactive).
`Fc1ccc(Nc2ncnc3ccccc23)cc1` was tested, and the AC50 was > 30 µM (inactive).
In the case of `Clc1ccc(Nc2nc(NCCN3CCOCC3)nc(N3CCOCC3)n2)cc1`, the AC50 is reported as > 30 µM (inactive).
Compound `O=c1[nH]c2c(s1)C(c1ccc(O)cc1)C1C3CCC(C3)C1S2` (stereo not given) has an AC50 of 0.649 µM.
`Nc1c(O)ccc2c1C(=O)c1ccccc1C2=O` showed an AC50 of 18.7 µM.
For `CN(C)c1ccc(/C=N/NC(=O)c2ccccc2Cl)cc1`, the AC50 was > 30 µM (inactive).
In the case of `Oc1ccc(/C=N/NP(=S)(c2ccccc2)c2ccccc2)cc1O`, the AC50 is reported as > 30 µM (inactive).
In the case of `Cc1nn2cc(-c3ccccc3)nc2[nH]c1=O`, the AC50 is reported as > 30 µM (inactive).
Work on `Cc1[nH]nc2c1C(c1ccsc1)C1=C(CC(C)(C)CC1=O)N2` (stereo not given) yielded an AC50 of 1.06 µM.
With `COc1ccc(OC)c(N=c2oc3c(OC)cccc3cc2C(=O)NCc2ccco2)c1` the AC50 was > 30 µM (inactive).
`O=C1c2c(O)ccc(O)c2C(=O)c2c(NCCNCCO)ccc(NCCNCCO)c21` gave an AC50 of 28.3 µM.
In the case of `COC(=O)C1=C(C)N(CC(C)C)C(=O)/C1=C\c1cccs1`, the AC50 is reported as > 30 µM (inactive).
With `CC(=O)c1cc(-c2ccc(F)cc2)n(CCC(=O)Nc2cccnc2)c1C` the AC50 was > 30 µM (inactive).
In the case of `CN1/C(=C\C=[N+](C)c2ccccc2)C(C)(C)c2ccccc21`, the AC50 is reported as > 30 µM (inactive).
`Nc1ncnc2c1ncn2[C@@H]1O[C@H](CNCc2ccccc2)[C@@H](O)[C@H]1O` was tested, and the AC50 was > 30 µM (inactive).
For `COc1ccc(S(=O)(=O)N[C@@H](CC(C)C)C(=O)O)cc1`, the AC50 was > 30 µM (inactive).
For `COC(=O)C1CSc2[nH]c(=O)sc2C1c1ccc(O)c(OC)c1` (stereo not given), the AC50 was > 30 µM (inactive).
With `Cc1csc(NC(=O)C2CCCN(S(=O)(=O)c3cnc[nH]3)C2)n1` (stereo not given) the AC50 was > 30 µM (inactive).
With `COc1cc(/C=N/NC(=O)c2cccc(C(=O)N/N=C/c3ccc(O)c(OC)c3)n2)ccc1O` the AC50 was > 30 µM (inactive).
For `CCc1cc2c3c(c(=O)oc2cc1O)CCCC3`, the AC50 was > 30 µM (inactive).
`CC1=C(C(=O)OCc2ccc3c(c2)OCO3)C(c2cccc([N+](=O)[O-])c2)NC(=O)N1` (stereo not given) showed an AC50 of 3.28 µM.
With `CCCOc1ccccc1NC(=O)Nc1ccccc1Cl` the AC50 was > 30 µM (inactive).
`COc1cccc(C(=O)O/N=C(\N)c2ccccn2)c1` showed an AC50 of 16.8 µM.
For `COc1cccc(-c2[nH]nc3c2C(c2ccc(C)o2)C(C#N)=C(N)O3)c1` (stereo not given), the AC50 was > 30 µM (inactive).
In the case of `OCc1nnn(-c2ccccc2)c1CO`, the AC50 is reported as > 30 µM (inactive).
`COc1cccc(Nc2ncnc3nc[nH]c23)c1` showed an AC50 of 19.7 µM.
In the case of `CCOc1cccc(-c2c(C(=O)N/N=C/c3ccoc3)nnn2-c2nonc2N)c1`, the AC50 is reported as 6.81 µM.
In the case of `Cc1cc(NCc2ccco2)n2c(nc3ccccc32)c1C#N`, the AC50 is reported as > 30 µM (inactive).
In the case of `CC(C)(C)c1ccc(CSc2nnc(-c3ccccc3NC(=O)c3ccccc3)o2)cc1`, the AC50 is reported as > 30 µM (inactive).
With `CCOC(=O)N1CCC(NC(=O)CCc2nc(C3=CCN(C)CC3)no2)CC1` the AC50 was > 30 µM (inactive).
With `Cc1ccnc(NC(=O)CN2C(=O)c3ccccc3S2(=O)=O)c1` the AC50 was > 30 µM (inactive).
With `Cc1ccc(C(=O)c2cnc3cc4c(cc3c2S(=O)(=O)c2ccccc2)OCCO4)cc1` the AC50 was > 30 µM (inactive).
`Cc1ccc2c(c1)Oc1ccc(NC(=O)CCCl)cc1C(=O)N2` was tested, and the AC50 was > 30 µM (inactive).
For `CC(C)(C)OC(=O)N1CCC(NC(=O)c2[nH]cnc2C(=O)Nc2ccccc2)CC1`, the AC50 was > 30 µM (inactive).
Work on `Cc1nc2sc(C(N)=O)c(N)c2c2c1CCCC2` yielded an AC50 of 28 µM.
In the case of `Clc1ccc(-c2noc(COc3ccccc3)n2)cc1`, the AC50 is reported as > 30 µM (inactive).
`CCOc1ccccc1-n1c(O)c(C=NCc2ccc3c(c2)OCO3)c(=O)[nH]c1=O` gave an AC50 of 17.5 µM.
In the case of `Cc1ccc(-c2cn3cccnc3n2)cc1NC(=O)c1c(-c2ccccc2Cl)noc1C`, the AC50 is reported as > 30 µM (inactive).
For `COc1ccc(Nc2sc(C(=O)c3ccc(Cl)cc3)c(N)c2C(=O)Nc2ccccc2OC)cc1`, the AC50 was > 30 µM (inactive).
For `Cc1ccc(S(=O)(=O)N2CCN(CC(=O)N/N=C\c3ccccn3)CC2)cc1`, the AC50 was > 30 µM (inactive).
With `CC(C)OC(=O)c1nnn(-c2nonc2N)c1CN1CCCCCC1` the AC50 was > 30 µM (inactive).
For `Cc1cc2nc(-c3cccnc3SCC(=O)NC(C)C)[nH]c2cc1C`, the AC50 was > 30 µM (inactive).
Work on `COc1ccc2ccccc2c1/C=N/NC(=O)c1sc(N)c(C#N)c1C` yielded an AC50 of 25.3 µM.
`C=CCNC(=S)N1CCN(c2cccc(C(F)(F)F)c2)CC1` was tested, and the AC50 was > 30 µM (inactive).
Compound `COC1(OC)N=C(N)C2(C#N)C(c3ccc4c(c3)OCO4)C12C#N` (stereo not given) has an AC50 of 20.1 µM.
For `CC1(C)CC(=O)C(C=Nc2ccc(O)cc2)=C(O)C1`, the AC50 was > 30 µM (inactive).
In the case of `CCn1c(SCC(=O)N/N=C/C=C\c2ccco2)nc2ccccc21`, the AC50 is reported as > 30 µM (inactive).
With `CCC(=NCc1cccnc1)c1c(O)n(C2CCCCC2)c(=O)[nH]c1=O` the AC50 was > 30 µM (inactive).
With `Clc1ccc(C2=Nn3c(nnc3-c3cccnc3)SC2)s1` the AC50 was > 30 µM (inactive).
`COc1ccc(Nc2nc(S(=O)(=O)c3ccc(C)cc3)c(Cl)s2)cc1` was tested, and the AC50 was > 30 µM (inactive).
